Results taken from patent publication US6784177B2, “Methods using hydralazine compounds and isosorbide dinitrate or isosorbide mononitrate” (Nitro Med, Inc., priority 1999, dated 2004).
Read-outs that look alike come from different tables or passages of the source.

Experiments:
[1] = system: male patients with heart failure; assay: V-HeFT II change in radiographic cardiothoracic ratio; assay type: in vivo, human; conditions: white patients
From the text: (§1) Drug administration was double-blind.

[2] = system: male patients with heart failure; assay: V-HeFT II change in systolic blood pressure; assay type: in vivo, human
From the text: as §1

[3] = system: black and white subgroups; assay: black:white relative risk in placebo and enalapril groups (trial not named); assay type: in vivo, human; conditions: enalapril group; placebo group 1.15
[4] = system: male patients with heart failure; assay: V-HeFT II hospitalization; assay type: in vivo, human
From the text: as §1

[5] = system: male patients with heart failure; assay: V-HeFT II mortality (Kaplan-Meier, log-rank); assay type: in vivo, human
From the text: as §1

[6] = system: male patients with heart failure; assay: V-HeFT II change in plasma norepinephrine (radioenzymatic assay); assay type: in vivo, human; conditions: either racial group
From the text: as §1

[7] = system: male patients with heart failure; assay: V-HeFT II quality of life, Heart Condition Assessment (HCA) questionnaire; assay type: in vivo, human; conditions: black patients, at 12 months, negative = improved, positive = worsened, p=0.043
Method: “Quality of life” refers to one or more of a persons ability to walk, climb stairs, do errands, work around the house, participate in recreational activities, and/or not requiring rest during the day, and/or the absence of sleeping problems or shortness of breath. The quality of life was measured using the Heart Condition Assessment (HCA) questionnaire. The questionnaire was self-administered after brief standardization instructions. The score was obtained by summing the ranks of the responses to each question.
as §1

[8] = system: male patients with heart failure; assay: V-HeFT II change in radionuclide left ventricular ejection fraction; assay type: in vivo, human; conditions: both racial groups
From the text: as §1

[9] = system: male patients with heart failure; assay: V-HeFT II peak exercise oxygen consumption (MVO2), bicycle-ergometer exercise test; assay type: in vivo, human
Method: “Oxygen consumption” was measured during a progressive maximal bicycle-ergometer exercise test taken while the expired air was collected continuously to monitor oxygen consumption. […] Patients with pulmonary diseases, obstructive valvular diseases and the like, tend to have a low oxygen consumption. An increase in a patient's oxygen consumption typically results in the patient's increased exercise tolerance and implies that the patient would have an improved quality of life.
as §1

[10] = system: male patients with heart failure; assay: V-HeFT I hospitalization; assay type: in vivo, human
From the text: as §1

[11] = system: male patients with heart failure; conditions: V-HeFT I
Method: Baseline measurements were restricted to the test done at the time of randomization. Change in measurements from baseline were compared between black and white patients using t-tests performed for each scheduled follow-up. […] Survival curves were compared by the log-rank test. Survival in black and white patients was further analyzed by presence or absence of a history of hypertension.
In the present invention, an interaction analysis between race and treatment was performed for both V-HeFT I and II, adjusting for baseline imbalances.
Male patients were screened for participation in the study on the basis of a history of heart failure or documentation of left ventricular enlargement or dysfunction by chest radiography, echocardiography or radionuclide ventriculography. The specific ventricular imaging requirement for entry was one of the following: a radiographic cardiothoracic ratio >0.55, an echocardiographic left ventricular end-diastolic diameter >2.7 cm/m^2 body surface area or radionuclide left ventricular ejection fraction <0.45. In addition, patients were eligible for entry only if they had reduced maximal exercise tolerance. This was defined as a measured peak oxygen consumption (VO2)<25 ml/kg per min during a progressive bicycle ergometer exercise test.
Nearly all patients were receiving background therapy with diuretic and/or digoxin. […] Full doses of the vasodilator regimens in V-HeFT I were prazosin 5 mg four times daily, the combination of hydralazine 75 mg and isosorbide dinitrate 40 mg four times daily, or placebo. […] Drug administration was double-blind. All patients were studied for the duration of the trial and for a minimum of 6 months or until death.

In the case of `CCOC(=O)[C@H](CCc1ccccc1)N[C@@H](C)C(=O)N1CCC[C@H]1C(=O)O` [enalapril], the “reduction in radiographic heart size (cardiothoracic ratio) during follow-up” value [1] is reported as “persisted through 3 years”, the “systolic blood pressure after the initial fall” value ([2]; black patients) is reported as “recovered by 13 weeks” and the “systolic blood pressure after the initial fall” value ([2]; white patients, 4.5 years of follow-up) is reported as “remained lower thereafter”. The “black:white relative risk” value [3] was 1.34, the “patients hospitalized for CHF (%)” value ([4]; black patients) was 22.6% and the “patients hospitalized for any reason (%)” value ([4]; black patients) was 61.3%. The “patients hospitalized for CHF (%)” value ([4]; white patients) was 17.5%, the “patients hospitalized for any reason (%)” value ([4]; white patients) was 62.0% and the “deaths among treated patients” value ([5]; black patients, of 106 on enalapril, of 109 on hydralazine-isosorbide dinitrate) was 39. For the same molecule, the “annual mortality rate (AMR)” value ([5]; black patients, p=NS) was 12.8%, the “mortality reduction with enalapril compared to hydralazine and isosorbide dinitrate” value ([5]; white patients with a history of hypertension, p<0.02) was “significant mortality reduction” and the “annual mortality rate (AMR)” value ([5]; white patients, log rank p=0.02) was 11.0%. The “deaths among treated patients” value ([5]; white patients, of 292 on enalapril, of 282 on hydralazine-isosorbide dinitrate) was 90, the “mortality reduction with enalapril compared to hydralazine and isosorbide dinitrate” value ([5]; whites or blacks without hypertensive history, blacks with hypertensive history) was “did not differ” and the “change in plasma norepinephrine (PNE)” value [6] was “not apparent”. For the same molecule, the “quality of life score (HCA questionnaire)” value [7] was “+1.04”, the “radionuclide ejection fraction (EF) response” value [8] was “rose” and the “mean improvement (increase) from baseline in MVO2, adjusted for differences in baseline characteristics” value ([9]; black patients, 12 months, p=0.15) was 0.6 mL/h/kg. The “decrease from baseline in MVO2” value ([9]; black patients, 12 months, unadjusted, p=0.19) was 2.82 mL/h/kg and the “effect on oxygen consumption (MVO2)” value ([9]; both black and white patients, 13 weeks) was “did not improve”.

For `COc1cc2nc(N3CCN(C(=O)c4ccco4)CC3)nc(N)c2cc1OC` [prazosin], the “patients hospitalized for CHF (%)” value ([10]; black patients) was 23. %, the “patients hospitalized for any reason (%)” value ([10]; black patients) was 40.4% and the “patients hospitalized for CHF (%)” value ([10]; white patients) was 31.5%. For the same molecule, the “patients hospitalized for any reason (%)” value ([10]; white patients) was 35.4%, the “annual mortality rate (AMR)” value ([11]; black patients, placebo AMR 17.3%) was 15.4% and the “treatment benefit on survival” value ([11]; white patients, vs placebo (FIG. 2B)) was “absence of demonstrable treatment benefit”. The “annual mortality rate (AMR)” value ([11]; white patients, placebo AMR 18.8%, p=NS) was 22.1%.
